Reference: patent publication US11021463B2, “Therapeutic inhibitory compounds” (Attune Pharmaceuticals, Inc., priority 2013, dated 2021)

Target: human plasma kallikrein (Homo sapiens (Human), UniProt P03952)
Assay: In vitro enzyme inhibition of human plasma kallikrein (Pro-Phe-Arg-AMC cleavage)
Format: biochemical
Conditions: human Plasma Kallikrein (Abcam), Pro-Phe-Arg-AMC substrate, 37° C., pH 7.5; read-out: hPK IC50
Description: The ability of the compounds disclosed herein to inhibit human plasma kallikrein activity was quantified according to the procedures below.
A 10 mM solution of the test compound was made in DMSO. […] A control tube containing only DMSO is included. 16 μL of each compound test solution was combined with 384 μL of assay buffer (50 mM Tris-HCl pH 7.5, 150 mM NaCl, 0.01% Triton X-100) to yield a “4× test compound buffer stock”.
These solutions are hereby referred to as 4× hPK and 2×PFR-AMC, respectively.
50 μL was removed from this mixture and placed into duplicate wells on a Microfluor 1Black U-bottom microtiter plate (Thermo Scientific). This plate was incubated for 5 minutes at 37° C. To each well, 50 μL of pre-warmed 2×PFR-AMC was added to start the enzymatic reaction. Cleavage of PFR-AMC was monitored in a Biotek Synergy H4 reader set at 37° C. Readings are taken every 43 seconds for 1 hour. […] The IC50 is calculated using the Gen5 (Biotek Instruments).
The ability of the compounds in Table 3 to inhibit human plasma kallikrein activity was determined.

human plasma kallikrein, sequence (P03952 391-638 limits assumed): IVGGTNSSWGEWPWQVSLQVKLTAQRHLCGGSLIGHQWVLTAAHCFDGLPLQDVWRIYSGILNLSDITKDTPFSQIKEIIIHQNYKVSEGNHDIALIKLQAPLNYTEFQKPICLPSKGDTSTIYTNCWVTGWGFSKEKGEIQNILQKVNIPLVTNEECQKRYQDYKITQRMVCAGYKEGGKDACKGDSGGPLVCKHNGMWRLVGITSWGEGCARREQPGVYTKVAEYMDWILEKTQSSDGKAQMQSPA
human plasma kallikrein, sequence (P03952 20-390 partner limits assumed): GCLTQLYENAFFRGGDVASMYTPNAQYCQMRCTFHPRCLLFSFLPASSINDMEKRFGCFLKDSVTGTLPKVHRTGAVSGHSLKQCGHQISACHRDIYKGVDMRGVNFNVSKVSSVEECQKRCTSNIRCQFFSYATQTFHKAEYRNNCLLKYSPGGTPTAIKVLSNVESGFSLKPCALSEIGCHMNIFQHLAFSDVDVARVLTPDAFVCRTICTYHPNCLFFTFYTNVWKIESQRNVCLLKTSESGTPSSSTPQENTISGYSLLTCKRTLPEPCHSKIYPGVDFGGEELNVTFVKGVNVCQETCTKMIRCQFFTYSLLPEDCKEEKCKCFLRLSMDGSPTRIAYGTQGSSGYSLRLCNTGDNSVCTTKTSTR

## N-((6-amino-2,4-dimethylpyridin-3-yl)methyl)-2-((5-methyl-3a,7a-dihydro-1H-indazol-1-yl)methyl)isonicotinamide [Example 108]
  IC50: < 100 nM
